Test system: MDCK cells
Test: Reversal of in vitro cyst formation in MDCK cells (Experiment 4)
Format: cell-based, canine
Details: compound added every 2 days from day 10 to day 20, with forskolin and vasopressin; FIG. 8
Description: In this study, the potential of PDE4 long form activators to reverse the formation of pre-formed cysts was evaluated. The experiment was carried out according to the method of Experiment 3. For the first 10 days, forskolin and vasopressin were added at every feed (every 2 days) but no test compound was added. For the next 10 days, the test compound, forskolin and vasopressin were added at every feed (every 2 days).
Phase-contrast images were obtained on the Motic microscope (×200 magnification) every 2 days for 20 days. Per condition, 10 images were taken (in duplicate) and the average cyst radius measured.

SMILES: CCc1nc(-c2ccc(Cl)c(F)c2)nn1CC(=O)NCc1cccc(F)c1 [Example A, N-(3-Fluorobenzyl)-2-[3-(4-chloro-3-fluorophenyl)-5-ethyl-1H-1,2,4-triazol-1-yl]acetamide]
- in vitro cyst formation in MDCK cells, reversal (in words): reversal of in vitro cyst formation

— patent US10793531B2, “Triazole derivatives and their use as PDE4 activators” (MIRONID LIMITED, priority 2015, dated 2020)
